The source made the active and inactive calls.
Columns and labels:
[1] = target: T1, E3 ubiquitin-protein ligase XIAP (Homo sapiens, UniProt P98170); experiment: Counter Screen using XIAP-Bir3 for Chemical Antagonists of Bir1/2 domains of IAP-family anti-apoptotic proteins. [Related pubchem assays (depositor defined):AID1018, AID1449, AID1514, AID1638, AID1749, AID1750, AID488957, AID488963]
[2] = target: T1, E3 ubiquitin-protein ligase XIAP; experiment: small molecules displacing peptide from XIAP – biochemical, IAP family, fluorescence polarization (AID 1018); assay type: functional
X-box-binding protein 1 = target: T2, X-box-binding protein 1 (Homo sapiens, UniProt P17861); assay type: functional, Cricetulus griseus;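 note: confirmatory dose-response counter-screen serving a CHOP assay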
T2 sequence (P17861 whole entry): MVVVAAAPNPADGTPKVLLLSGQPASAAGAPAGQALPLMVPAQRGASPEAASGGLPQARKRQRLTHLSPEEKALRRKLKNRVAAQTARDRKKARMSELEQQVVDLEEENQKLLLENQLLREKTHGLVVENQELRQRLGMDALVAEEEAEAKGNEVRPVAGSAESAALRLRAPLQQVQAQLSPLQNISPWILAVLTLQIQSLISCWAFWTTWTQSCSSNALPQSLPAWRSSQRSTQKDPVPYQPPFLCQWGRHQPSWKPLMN

[3] = target: T3, Heat shock factor protein 1 (Mus musculus, UniProt P38532); experiment: decrease of HSF1-responsive luciferase luminescence – cell-based, NIH3T3, dose retest, confirmation (AID 2382); assay type: functional;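 note: NIH3T3 fibroblasts with HSF1-driven luciferase reporter stressed by proteasome inhibitor MG132; luminescence from HSF1-driven luciferase expression after 8 hours of MG132 stress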
T3 sequence (P38532 whole entry): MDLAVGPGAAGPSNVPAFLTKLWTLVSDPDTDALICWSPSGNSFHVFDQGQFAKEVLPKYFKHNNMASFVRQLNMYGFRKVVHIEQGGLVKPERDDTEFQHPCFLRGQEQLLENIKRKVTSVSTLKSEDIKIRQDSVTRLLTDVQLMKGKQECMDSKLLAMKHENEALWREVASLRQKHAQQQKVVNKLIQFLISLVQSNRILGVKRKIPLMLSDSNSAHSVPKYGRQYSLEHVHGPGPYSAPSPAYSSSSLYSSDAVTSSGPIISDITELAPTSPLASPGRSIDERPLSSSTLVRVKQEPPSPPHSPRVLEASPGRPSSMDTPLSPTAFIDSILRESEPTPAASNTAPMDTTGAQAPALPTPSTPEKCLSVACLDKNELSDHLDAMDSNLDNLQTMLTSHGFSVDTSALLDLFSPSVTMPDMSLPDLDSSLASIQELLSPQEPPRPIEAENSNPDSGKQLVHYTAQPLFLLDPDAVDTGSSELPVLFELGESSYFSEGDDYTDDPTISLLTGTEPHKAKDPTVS

[4] = target: T4, Aryl hydrocarbon receptor (Homo sapiens, UniProt P35869); experiment: Luminescence-based cell-based high throughput dose response assay for activators of the Aryl Hydrocarbon Receptor (AHR). [Related pubchem assays: 2796 (Primary screen (AHR activators in singlicate)), 2845 (Confirmation screen (AHR activators in triplicate)), 434939 (Counterscreen (PXR activators in triplicate)), 2804 (Summary (AHR activators))]; assay type: ADME
T4 sequence (P35869 whole entry): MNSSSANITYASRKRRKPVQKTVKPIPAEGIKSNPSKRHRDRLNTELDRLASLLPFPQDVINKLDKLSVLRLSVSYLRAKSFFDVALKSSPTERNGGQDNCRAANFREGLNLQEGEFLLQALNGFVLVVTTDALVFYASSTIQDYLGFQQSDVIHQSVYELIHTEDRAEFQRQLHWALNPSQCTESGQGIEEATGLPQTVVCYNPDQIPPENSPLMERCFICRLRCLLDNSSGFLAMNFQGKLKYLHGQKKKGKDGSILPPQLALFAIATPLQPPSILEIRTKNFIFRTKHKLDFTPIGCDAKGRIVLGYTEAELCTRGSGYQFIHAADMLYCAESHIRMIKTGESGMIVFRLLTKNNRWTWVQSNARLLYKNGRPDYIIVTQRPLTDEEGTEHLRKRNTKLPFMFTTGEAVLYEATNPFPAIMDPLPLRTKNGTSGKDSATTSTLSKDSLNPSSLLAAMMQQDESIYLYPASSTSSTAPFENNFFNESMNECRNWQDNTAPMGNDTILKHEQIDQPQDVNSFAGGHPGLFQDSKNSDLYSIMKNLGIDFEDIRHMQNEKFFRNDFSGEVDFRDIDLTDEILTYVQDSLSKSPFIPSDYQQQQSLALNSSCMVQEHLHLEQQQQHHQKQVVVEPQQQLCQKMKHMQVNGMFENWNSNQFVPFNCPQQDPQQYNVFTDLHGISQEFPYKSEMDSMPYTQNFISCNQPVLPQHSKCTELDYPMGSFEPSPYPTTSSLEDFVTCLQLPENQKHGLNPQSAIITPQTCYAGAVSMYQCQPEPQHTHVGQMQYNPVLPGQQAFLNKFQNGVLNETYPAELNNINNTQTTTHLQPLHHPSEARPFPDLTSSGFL

Caspase-6 = target: T5, Caspase-6 (Homo sapiens, UniProt P55212); experiment: inhibition of CASP6 peptide cleavage – biochemical, VEID-R110 fluorescence, cherry-pick, dose response (AID 720632)
T5 sequence (P55212 whole entry): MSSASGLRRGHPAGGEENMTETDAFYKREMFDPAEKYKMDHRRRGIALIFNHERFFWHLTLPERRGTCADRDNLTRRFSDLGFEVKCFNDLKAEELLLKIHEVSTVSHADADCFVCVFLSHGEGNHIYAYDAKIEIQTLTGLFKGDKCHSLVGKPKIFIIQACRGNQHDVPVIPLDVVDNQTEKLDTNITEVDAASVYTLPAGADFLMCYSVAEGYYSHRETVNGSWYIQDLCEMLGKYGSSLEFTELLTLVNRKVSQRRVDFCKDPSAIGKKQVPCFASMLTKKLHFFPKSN

[5] = test system: Streptococcus sp. 'group A'; experiment: Streptococcus pyogenes SK(-)GAS viability under kanamycin – luminescence, BacTiterGlo, confirmation, counter-screen for streptokinase expression inhibitor project, dose response (AID 1900); assay type: functional, organism-based
Streptococcus = experiment: GAS UMAA2166 growth inhibition – luminescence, BacTiterGlo, counter-screen for streptokinase expression inhibitor project, dose response (AID 1915); assay type: functional, organism-based;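 note: potency for reduction of bacterial viability or growth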

T1 sequence (P98170 whole entry): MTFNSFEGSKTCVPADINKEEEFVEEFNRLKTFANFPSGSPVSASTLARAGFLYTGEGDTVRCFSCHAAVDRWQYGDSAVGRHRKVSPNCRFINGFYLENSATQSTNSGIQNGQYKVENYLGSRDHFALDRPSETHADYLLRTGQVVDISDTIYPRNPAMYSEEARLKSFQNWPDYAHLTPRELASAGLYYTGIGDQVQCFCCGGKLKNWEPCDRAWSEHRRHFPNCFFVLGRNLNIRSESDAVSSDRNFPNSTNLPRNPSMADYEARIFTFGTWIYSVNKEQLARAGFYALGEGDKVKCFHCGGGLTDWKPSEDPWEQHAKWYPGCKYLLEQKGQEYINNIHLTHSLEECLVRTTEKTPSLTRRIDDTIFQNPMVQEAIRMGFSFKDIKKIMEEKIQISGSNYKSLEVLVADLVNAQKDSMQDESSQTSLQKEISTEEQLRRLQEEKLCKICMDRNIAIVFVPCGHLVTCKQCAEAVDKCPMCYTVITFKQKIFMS

Row | Compound | IC50 [1] | IC50 [2] | EC50 [4] | other results
1 | Cc1cc(S(=O)(=O)N2CCN(Cc3ccccc3)CC2)c(C)s1 | > 100 µM (inactive) | > 100 µM (not active) | – | –
2 | Cn1c(-c2cccc(OCc3ccccc3)c2)nc2c1c(=O)[nH]c(=O)n2Cc1ccccc1 | – | – | – | Absolute IC50 (XBP1) (X-box-binding protein 1): 10 µM
3 | CC(C)CC(NC(=O)c1ccco1)C(=O)Nc1ccc2c(c1)OCCO2 (stereo unspecified) | > 100 µM (inactive) | > 100 µM (not active) | – | EC50 [3]: 11.3 µM (active)
4 | COC(=O)c1ccccc1NC(=O)Cn1ccnc1 | – | – | 2.18 µM (active) | –
5 | CN1CCN(c2ccccc2NC(=O)c2ccc(-c3cccc([N+](=O)[O-])c3)o2)CC1 | > 100 µM (inactive) | > 100 µM (not active) | – | –
6 | CCCC(=O)Nc1nn(C)c2nc3cc(C)ccc3cc12 | – | – | 0.458 µM (active) | –
7 | O=C(O)COn1c(-c2ccccc2)nc2ccc([N+](=O)[O-])cc21 | – | – | 4.82 µM (active) | AC50 (Caspase-6): 5.23 µM (active)
8 | CC[C@H]1OC(=O)[C@H](C)[C@@H](O[C@H]2C[C@@](C)(OC)[C@@H](O)[C@H](C)O2)[C@H](C)[C@@H](O[C@@H]2O[C@H](C)C[C@H](N(C)C)[C@H]2O)[C@](C)(O)C[C@@H](C)[C@@H]2N[C@@H](COCCOC)O[C@H]([C@H]2C)[C@]1(C)O [DIRITHROMYCIN] | > 100 µM (inactive) | > 100 µM (not active) | – | EC50 [5]: < 0.06 µM (active); EC50 (Streptococcus): 0.117 µM (active)
